Measured values: US20200352905A1, “6-(2,4-DICHLOROPHENYL)-5-[4-[(3S)-1-(3-FLUOROPROPYL)PYRROLIDIN-3-YL]OXYPHENYL]-8,9-DIHYDRO-7H-BENZO[7]ANNULENE-2-CARBOXYLIC ACID FOR USE IN METASTATIC OR ADVANCED BREAST CANCER PATIENTS” (SANOFI, priority 2019, published 2020)

Tests used:
[1] = TED14856 Part B (dose expansion, 400 mg QD): safety, TEAEs; assay type: in vivo, human
Method: Part B: Dose expansion study to evaluate the efficacy, safety, PK and PD of compound (1) administered at the RD (from Part A). […] A BID regimen (without omission on Day 2) may also be explored if found to be needed. Safety population includes all patients exposed to at least one dose of the study treatment. Treatment emergent adverse events (TEAEs) are analyzed according to current version of the Medical Dictionary for Regulatory Activities (MedDRA) dictionary. Laboratory abnormalities are analyzed according to the NCI-CTCAE v.4.03. Type, frequency, seriousness, severity and relatedness of study treatment TEAEs is analyzed on the safety population for each dose level. Similar analyses as for the escalation phase shall be performed.

[2] = test system: ER-positive and HER2-negative advanced breast cancer; test: TED14856 pooled population (Part A >=150 mg and Part B): post-hoc efficacy analyses and sub-populations; settings: for Best Overall Response: Complete Response (CR), number of patients / Best Overall Response: Partial Response (PR), % of patients / Best Overall Response: Partial Response (PR), number of patients / Best Overall Response: Progressive Disease (PD), % of patients / Best Overall Response: Progressive Disease (PD), number of patients / Best Overall Response: Stable Disease (SD), % of patients / Best Overall Response: Stable Disease (SD), number of patients / Clinical Benefit Rate, % of patients / Clinical Benefit Rate, number of patients / Overall Response Rate (confirmed CR and PR), % of patients / Overall Response Rate (confirmed CR and PR), number of patients: no prior mTOR, CDK4/6, fulvestrant; for Clinical Benefit Rate (CBR): pooled population
[3] = All, pooled Part A ≥150 mg and Part B 400 mg (N = 14)
[4] = TED14856 2017-2019, pooled population n=59, setting 2-9L, prior CDK4/6, mTOR, fulvestrant allowed
[5] = TED14856 2017-2019, sub-population n=14, setting 2L+, no prior CDK4/6, mTOR, fulvestrant
[6] = TED14856 2017-2019, sub-population n=32, setting 3L, prior CDK4/6 allowed, prior mTOR not allowed, prior fulvestrant allowed
[7] = sub-population of 14 patients with neither prior targeted therapies nor SERD (3/14)

Structure (SMILES): O=C(O)c1ccc2c(c1)CCCC(c1ccc(Cl)cc1Cl)=C2c1ccc(O[C@H]2CCN(CCCF)C2)cc1 [compound (1), 6-(2,4-dichlorophenyl)-5-[4-[(3S)-1-(3-fluoropropyl)pyrrolidin-3-yl]oxyphenyl]-8,9-dihydro-7H-benzo[7]annulene-2-carboxylic acid]
- Patients with related Gr3 TEAE: Vomiting ([1]; Part B, 400 mg, N=49): 0 n
- Patients with related TEAE: ALT increased ([1]; Part B, 400 mg, N=49): 0 n
- Patients with related TEAE: AST increased ([1]; Part B, 400 mg, N=49): 0 n
- Patients with related TEAE: Back pain ([1]; Part B, 400 mg, N=49): 0 n
- Patients with related TEAE: Headache ([1]; Part B, 400 mg, N=49): 0 n
- Patients with related TEAE: Nasopharyngitis ([1]; Part B, 400 mg, N=49): 0 n
- Patients with related TEAE: Pyrexia ([1]; Part B, 400 mg, N=49): 0 n
- Patients with related TEAE: Rhinitis allergic ([1]; Part B, 400 mg, N=49): 0 n
- number of SAEs of grade ≥3 ([1]; Part B, N=49): 14
- laboratory abnormality reported as adverse event: alkaline phosphatase increase ([1]; Part B, not considered related): 1
- laboratory abnormality reported as adverse event: hyperbilirubinemia ([1]; Part B, not considered related): 2
- laboratory abnormality reported as adverse event: hypercalcemia ([1]; Part B, not considered related): 1
- laboratory abnormality reported as adverse event: increase of alanine amino transferase ([1]; Part B, not considered related): 3
- laboratory abnormality reported as adverse event: increase of aspartate amino transferase ([1]; Part B, not considered related): 3
- related serious adverse events ([1]; whole study): no related serious adverse events
- Best Overall Response: Complete Response (CR), number of patients ([2]; 400 mg PART B (N = 11)): 0 n
- Best Overall Response: Partial Response (PR), % of patients ([2]; 400 mg PART B (N = 11)): (27.3) %
- Best Overall Response: Partial Response (PR), number of patients ([2]; 400 mg PART B (N = 11)): 3 n
- Best Overall Response: Progressive Disease (PD), % of patients ([2]; 400 mg PART B (N = 11)): (18.2) %
- Best Overall Response: Progressive Disease (PD), number of patients ([2]; 400 mg PART B (N = 11)): 2 n
- Best Overall Response: Stable Disease (SD), % of patients ([2]; 400 mg PART B (N = 11)): (54.5) %
- Best Overall Response: Stable Disease (SD), number of patients ([2]; 400 mg PART B (N = 11)): 6 n
- Clinical Benefit Rate, % of patients ([2]; 400 mg PART B (N = 11)): (63.6) %
- Clinical Benefit Rate, number of patients ([2]; 400 mg PART B (N = 11)): 7 n
- Overall Response Rate (confirmed CR and PR), % of patients ([2]; 400 mg PART B (N = 11)): (27.3) %
- Overall Response Rate (confirmed CR and PR), number of patients ([2]; 400 mg PART B (N = 11)): 3 n
- Best Overall Response: Complete Response (CR), number of patients [2, 3]: 0 n
- Best Overall Response: Partial Response (PR), % of patients [2, 3]: (21.4) %
- Best Overall Response: Partial Response (PR), number of patients [2, 3]: 3 n
- Best Overall Response: Progressive Disease (PD), % of patients [2, 3]: (21.4) %
- Best Overall Response: Progressive Disease (PD), number of patients [2, 3]: 3 n
- Best Overall Response: Stable Disease (SD), % of patients [2, 3]: (57.1) %
- Best Overall Response: Stable Disease (SD), number of patients [2, 3]: 8 n
- Clinical Benefit Rate, % of patients [2, 3]: (64.3) %
- Clinical Benefit Rate, number of patients [2, 3]: 9 n
- Overall Response Rate (confirmed CR and PR), % of patients [2, 3]: (21.4) %
- Overall Response Rate (confirmed CR and PR), number of patients [2, 3]: 3 n
- CBR [2, 4]: 35.6%
- ORR [2, 4]: 6.8%
- CBR [2, 5]: 64.3%
- ORR [2, 5]: 21.4%
- CBR [2, 6]: 46.9%
- ORR [2, 6]: 12.5%
- Clinical Benefit Rate (CBR) ([2]; ESR1 mutated patients (9/28)): 32.1%
- Clinical Benefit Rate (CBR) ([2]; patients with wild-type ESR1 (12/30)): 40.0%
- Complete Response (CR) ([2]; pooled: All, N=59, by investigator): 0 n
- Complete Response (CR) ([2]; pooled: Part A >=150 mg, N=13, by investigator): 0 n
- Complete Response (CR) ([2]; pooled: Part B 400 mg, N=46, by investigator): 0 n
- ORR [2, 7]: 21.4%
- PD [2, 7]: 21.4%
- PRs [2, 7]: 21.4%
- CBR ([2]; sub-population of 14 patients with neither prior targeted therapies nor SERD (9/14)): 64.3%
- Complete Response (CR) ([2]; ≤3 prior lines, not both chemotherapy and CDK4/6 inhibitor, no mTOR inhibitor: All, N=32): 0 n
- Complete Response (CR) ([2]; ≤3 prior lines, not both chemotherapy and CDK4/6 inhibitor, no mTOR inhibitor: Part A ≥150 mg, N=6): 0 n
- Complete Response (CR) ([2]; ≤3 prior lines, not both chemotherapy and CDK4/6 inhibitor, no mTOR inhibitor: Part B 400 mg, N=26): 0 n
- Best Overall Response: Complete Response (CR), number of patients ([2]; ≥150 mg PART A (N = 3)): 0 n
- Best Overall Response: Partial Response (PR), number of patients ([2]; ≥150 mg PART A (N = 3)): 0 n
- Best Overall Response: Progressive Disease (PD), % of patients ([2]; ≥150 mg PART A (N = 3)): 33.3%
- Best Overall Response: Progressive Disease (PD), number of patients ([2]; ≥150 mg PART A (N = 3)): 1 n
- Best Overall Response: Stable Disease (SD), % of patients ([2]; ≥150 mg PART A (N = 3)): 66.7%
- Best Overall Response: Stable Disease (SD), number of patients ([2]; ≥150 mg PART A (N = 3)): 2 n
- Clinical Benefit Rate, % of patients ([2]; ≥150 mg PART A (N = 3)): 66.7%
- Clinical Benefit Rate, number of patients ([2]; ≥150 mg PART A (N = 3)): 2 n
- Overall Response Rate (confirmed CR and PR), number of patients ([2]; ≥150 mg PART A (N = 3)): 0 n
